Assay results: patent publication US9012439B2, “Use of electrophilic compounds for inducing platelet production or maintaining platelet function” (University of Rochester, priority 2007, dated 2015)

Experiments:
[1] = system: Meg-01 cells; assay: Platelet production from Meg-01 cells (flow cytometry); format: cell-based, human; details: for effect of antioxidant pretreatment on 15d-PGJ2-induced platelet production / platelet production: Meg-01 cells; for effect of antioxidant pretreatment on 15d-PGJ2-induced platelet production: 5 mM GSH-EE or 1 mM NAC for 2 h, then 15d-PGJ2 24 h; for platelet production: 10 μM, 24 h
Protocol: Meg-01 and M07e cells were purchased from the American Type Culture Collection (Rockville, Md.) and Dami cells were a generous gift from Dr. Patricia J. Simpson-Haidaris (University of Rochester). All cells were cultured in RPMI-1640 tissue culture medium (Invitrogen) supplemented with 5% fetal bovine serum (FBS; Invitrogen), 10 mM HEPES (N-2-hydroxyethylpiperazine-N′-2-ethanesulfonic acid; Sigma), 2 mM L-glutamine (Invitrogen), 4.5 g/L glucose (Invitrogen), and 50 μg/mL gentamicin (Invitrogen). M07e cells were also supplemented with 100 ng/mL of granulocyte monocyte-colony stimulating factor (GM-CSF, R&D Systems). All treatments were performed in normal growth media. Dimethyl sulfoxide (DMSO) was used as a vehicle (control) in the experiments described below.
Platelets were isolated from megakaryocytes by centrifugation at 150 xg for 10 min. Supernatants underwent sequential centrifugation (500 xg for 10 min and 1000×g for 10 min). The remaining platelet pellet was fixed then permeabilized with a CD61 or CD41 antibody. 7-AAD (BD Pharmingen) was added for 10 min before analyzing the cells by flow cytometry. Platelets were identified using three well-described parameters (Patel et al., “The Biogenesis of Platelets from Megakaryocyte Proplatelets,” J Clin Invest 115:3348-3354 (2005); Breton-Gorius et al., “Expression of Platelet Proteins During the In Vitro and In Vivo Differentiation of Megakaryocytes and Morphological Aspects of Their Maturation,” Semin Hematol 23:43-67 (1986); Ogura et al., “Establishment of a Novel Human Megakaryoblastic Leukemia Cell Line, MEG-01, With Positive Philadelphia Chromosome,” Blood 66:1384-1392 (1985) and Franks et al., “A Fluorescence Microscopy Method for Quantifying Levels of Prostaglandin Endoperoxide H Synthase-1 and CD-41 in MEG-01 Cells,” Biol Proced Online 3:54-63 (2001), each of which is hereby incorporated by reference in its entirety), size (using normal human platelets as a control), presence of CD61 or CD41 and lack of DNA as determined by the absence of 7-AAD staining Ten thousand platelet events were collected and platelets were quantified by rate (platelet events/second) (Chung et al., “Platelet Activation in Acute, Decompensated Congestive Heart Failure,” Thromb Res 120:709-713 (2007), which is hereby incorporated by reference in its entirety.
A 19 by target sequence was selected to knock down PPARγ. PPARγ was cloned downstream of the RNA polymerase III U6 promoter and subcloned into a FG12 lentiviral vector which expresses green fluorescent protein (GFP) under the Ubiquitin C promoter. HEK 293 cells expressing this siRNA PPARγ had reduced PPARγ protein levels. To make the lentivirus, HEK 293 cells were co-transfected with 3 plasmids: the envelope vector (CMV-VSVG), the transfer vector (FG12-shRNAPPAR), and the packaging construct (pCMVΔ89.2 (gag/pol proteins)). Viral supernatants were collected every 8 h for 2 days and concentrated by ultracentrifugation at 50,000×g for 2 h at 4° C. using a Beckman SW 28 rotor. Viral titers were determined by infection of HeLa cells with serial dilutions of the viral stocks. Meg-01 cells were infected at a multiplicity of infection (MOI) of 20. After 48 h, approximately 56% of the PPARγ siRNA cells were transduced as determined by flow cytometry. The GFP positive (+) cells were then sorted by FACS and grown in RPMI with 5% FBS.

[2] = system: Meg-01 cells; assay: Reactive oxygen species production in Meg-01 cells (carboxy-H2DCFDA, MitoSOX Red); format: cell-based, human; details: for effect of antioxidant pretreatment on 15d-PGJ2 ROS induction: Meg-01 cells, pretreatment before 15d-PGJ2; for percentage of Meg-01 cells that produce mitochondrial superoxide (MitoSOX Red): 10 μM
Protocol: Ten μM carboxy-H2DCFDA was added to cells for 20 min at RT. The cells were washed and immediately analyzed by flow cytometry. Five μM of MitoSOX Red dye in HBSS containing Mg^2+ and Ca^2+ was added to the cells for 15 min at 37° C. The cells were washed in HBSS and analyzed by flow cytometry.

[3] = system: primary human megakaryocytes; assay: Platelet production from human cord blood CD34+-derived megakaryocytes; format: cell-based; details: primary human megakaryocytes; 5 mM GSH-EE or 1 mM NAC for 2 h, then 15d-PGJ2 24 h
Protocol: Human CD34+ cord blood cells were obtained from the National Disease Research Interchange (NDRI, Philadelphia, Pa.). Cells were plated at 2.5×10^5 cells per well in a 12-well plate and cultured in serum-free medium as previously described (Zeuner et al., “Chemotherapy-induced Thrombocytopenia Derives from the Selective Death of Megakaryocyte Progenitors and Can Be Rescued by Stem Cell Factor,” Cancer Res 67:4767-4773 (2007), which is hereby incorporated by reference in its entirety) and supplemented with 100 ng/mL of rhTPO. After 14 days in culture, megakaryocytes were identified by staining with a CD61-FITC antibody and analyzed on a BD Biosciences FACSCalibur flow cytometer. Data were analyzed using FlowJo software (Treestar, Ashland, Oreg.). Cell images were captured using an inverted microscope (Olympus IX81). Platelets were isolated from megakaryocytes by centrifugation at 150 xg for 10 min. Supernatants underwent sequential centrifugation (500 xg for 10 min and 1000×g for 10 min). The remaining platelet pellet was fixed then permeabilized with a CD61 or CD41 antibody. 7-AAD (BD Pharmingen) was added for 10 min before analyzing the cells by flow cytometry. Platelets were identified using three well-described parameters (Patel et al., “The Biogenesis of Platelets from Megakaryocyte Proplatelets,” J Clin Invest 115:3348-3354 (2005); Breton-Gorius et al., “Expression of Platelet Proteins During the In Vitro and In Vivo Differentiation of Megakaryocytes and Morphological Aspects of Their Maturation,” Semin Hematol 23:43-67 (1986); Ogura et al., “Establishment of a Novel Human Megakaryoblastic Leukemia Cell Line, MEG-01, With Positive Philadelphia Chromosome,” Blood 66:1384-1392 (1985) and Franks et al., “A Fluorescence Microscopy Method for Quantifying Levels of Prostaglandin Endoperoxide H Synthase-1 and CD-41 in MEG-01 Cells,” Biol Proced Online 3:54-63 (2001), each of which is hereby incorporated by reference in its entirety), size (using normal human platelets as a control), presence of CD61 or CD41 and lack of DNA as determined by the absence of 7-AAD staining Ten thousand platelet events were collected and platelets were quantified by rate (platelet events/second) (Chung et al., “Platelet Activation in Acute, Decompensated Congestive Heart Failure,” Thromb Res 120:709-713 (2007), which is hereby incorporated by reference in its entirety.

[4] = system: primary human megakaryocytes; assay: Reactive oxygen species production in primary human megakaryocytes; format: cell-based; details: pretreatment before 15d-PGJ2
Protocol: Human CD34+ cord blood cells were obtained from the National Disease Research Interchange (NDRI, Philadelphia, Pa.). Cells were plated at 2.5×10^5 cells per well in a 12-well plate and cultured in serum-free medium as previously described (Zeuner et al., “Chemotherapy-induced Thrombocytopenia Derives from the Selective Death of Megakaryocyte Progenitors and Can Be Rescued by Stem Cell Factor,” Cancer Res 67:4767-4773 (2007), which is hereby incorporated by reference in its entirety) and supplemented with 100 ng/mL of rhTPO. After 14 days in culture, megakaryocytes were identified by staining with a CD61-FITC antibody and analyzed on a BD Biosciences FACSCalibur flow cytometer. Data were analyzed using FlowJo software (Treestar, Ashland, Oreg.). Cell images were captured using an inverted microscope (Olympus IX81). Ten μM carboxy-H2DCFDA was added to cells for 20 min at RT. The cells were washed and immediately analyzed by flow cytometry. Five μM of MitoSOX Red dye in HBSS containing Mg^2+ and Ca^2+ was added to the cells for 15 min at 37° C. The cells were washed in HBSS and analyzed by flow cytometry.

For CCOC(=O)CNC(=O)[C@H](CS)NC(=O)CC[C@H](N)C(=O)O [GSH-EE, glutathione reduced ethyl ester, reference compound], the “effect of antioxidant pretreatment on 15d-PGJ2-induced platelet production” value (from here on “effect … on 15d-PGJ2-induced platelet production”) [1] was “attenuate 15d-PGJ2-induced platelet production”, the “effect of antioxidant pretreatment on 15d-PGJ2 ROS induction” value (from here on “effect … on 15d-PGJ2 ROS induction”) [2] was “attenuated both ROS induction and platelet formation” and the “effect … on 15d-PGJ2-induced platelet production” value [3] was “attenuate 15d-PGJ2-induced platelet production”. For the same compound, the “effect … on 15d-PGJ2 ROS induction” value [4] was “attenuated both ROS induction and platelet formation”.

O=C(Nc1ccccc1)c1cc([N+](=O)[O-])ccc1Cl [GW9662] was tested, and the “blocking of 15d-PGJ2-enhanced platelet production” value ([1]; Meg-01 cells pre-treated 2 h with 100 nM GW9662, then 15d-PGJ2 24 h) was “not blocked”.

CC(=O)N[C@@H](CS)C(=O)O [NAC, N-acetylcysteine, reference compound] was tested, and the “effect … on 15d-PGJ2-induced platelet production” value [1] was “attenuate 15d-PGJ2-induced platelet production”, the “effect … on 15d-PGJ2 ROS induction” value [2] was “attenuated both ROS induction and platelet formation” and the “effect … on 15d-PGJ2-induced platelet production” value [3] was “attenuate 15d-PGJ2-induced platelet production”. For the same compound, the “effect … on 15d-PGJ2 ROS induction” value [4] was “attenuated both ROS induction and platelet formation”.

CCCCC[C@H](O)/C=C/[C@H]1[C@H](O)CC(=O)[C@@H]1C/C=C\CCCC(=O)O [PGE2] was tested, and the platelet production [1] was “failed to enhance platelet production”.

In the case of CCCCC[C@H](O)/C=C/[C@@H]1[C@@H](C/C=C\CCCC(=O)O)[C@@H](O)C[C@H]1O [PGF2α], the platelet production [1] is reported as “failed to enhance platelet production”.

With CCCCC[C@H](O)/C=C/[C@@H]1[C@H]2C/C(=C/CCCC(=O)O)O[C@H]2C[C@H]1O [PGI2] the platelet production [1] was “failed to enhance platelet production”.

With CCCCC[C@H](O)/C=C/[C@H]1C(=O)C=C[C@@H]1C/C=C\CCCC(=O)O [PGJ2] the platelet production [1] was “enhanced Meg-01 platelet production”, the “percentage of Meg-01 cells that produce mitochondrial superoxide (MitoSOX Red)” value ([2]; 1 h) was 33% and the “percentage of Meg-01 cells that produce mitochondrial superoxide (MitoSOX Red)” value ([2]; 6 h) was 25%. The “percentage of Meg-01 cells that express ROS (carboxy-H2DCFDA)” value ([2]; 1 h) was 65% and the “percentage of Meg-01 cells that express ROS (carboxy-H2DCFDA)” value ([2]; 6 h) was 76%.
